One assay concerns PKCδ. As to the kind of experiment: PKCδ translocation in ETFR cells. It counts as cell-based, rat. The note with it: 100 nM fMLF, 10 μg/ml CaG or PMA 500 nM, 37° C. 10 min. The protocol:
ETFR cells were seeded on coverslips and cultured overnight in DMEM containing 1% FCS at 37° C. After further culture in FCS-free DMEM for 3 h, cells were treated with stimulants for indicated time periods at 37° C. and were then fixed in 4% paraformaldehyde for 5 min at room temperature. […] The rabbit anti-PKCα/β, δ, and ξ, antibodies (1:1000 in DPBS) were applied separately for 1 h at room temperature. After three rinses with DPBS, the cells were stained with FITC-labeled goat anti-rabbit secondary antibody (PharMingen, 1:1000 in DPBS) for 1 h at room temperature. The coverslips were mounted with an anti-fade, water-based mounting medium with Propidium Iodide (PI) (Vector Lab, Burlingamem, Calif.) and analyzed under a laser scanning confocal fluorescence microscope (Zeiss LSM510 NLO Meta, Jena, Germany).

For another assay, the system named is PKC isozymes. As to the kind of experiment: PKC translocation in parental RBL cells. It counts as cell-based, rat. The conditions noted are these: 100 nM fMLF, 10 μg/ml CaG or PMA 500 nM, 37° C. 10 min.
A further assay concerns PKCζ. As to the kind of experiment: PKCζ translocation in ETFR cells (confocal microscopy). The format is cell-based, rat. The note with it: 100 nM fMLF, 10 μg/ml CaG or PMA 500 nM, 37° C. 10 min. On the procedure:
(§1) ETFR cells were seeded on coverslips and cultured overnight in DMEM containing 1% FCS at 37° C. After further culture in FCS-free DMEM for 3 h, cells were treated with stimulants for indicated time periods at 37° C. and were then fixed in 4% paraformaldehyde for 5 min at room temperature. The cells were permeabilized with 0.2% Tween 20 for 30 min at 4° C. and the reaction was blocked with 5% goat normal serum for 15 min at room temperature. The rabbit anti-PKCα/β, δ, and ξ, antibodies (1:1000 in DPBS) were applied separately for 1 h at room temperature. After three rinses with DPBS, the cells were stained with FITC-labeled goat anti-rabbit secondary antibody (PharMingen, 1:1000 in DPBS) for 1 h at room temperature. The coverslips were mounted with an anti-fade, water-based mounting medium with Propidium Iodide (PI) (Vector Lab, Burlingamem, Calif.) and analyzed under a laser scanning confocal fluorescence microscope (Zeiss LSM510 NLO Meta, Jena, Germany). Excitation wavelengths 488 (for FITC) and 568 (for PI) nm were used to generate fluorescence emission in green and red, respectively.

For the next assay, the system named is PKCα/β. As to the kind of experiment: PKCα/β translocation in ETFR cells. It counts as cell-based, rat. The conditions noted are these: 100 nM fMLF, 10 μg/ml CaG or PMA 500 nM, 37° C. 10 min. On the procedure: as §1
Another assay relates to monocytes. As to the kind of experiment: Chemotaxis assay, monocytes. It counts as cell-based, human. On the procedure: Human PBMC were isolated from leukopacks obtained through the courtesy of Transfusion Medicine Department, National Institutes of Health Clinical Center (Bethesda, Md.) by Ficoll-Hypaque density gradient centrifugation. Monocytes were purified from human PBMC by Percoll gradient to yield>90% pure preparations. […] H. Ali and R. Snyderman, Duke University (Durham, N.C.) and maintained in the presence of 0.8 mg/ml geneticin (G418, Life Technologies, Rockville, Md.) in DMEM supplemented with 10% FCS. B. Chemotaxis assay Migration of phagocytes and ETFR cells was assessed using a 48-well microchemotaxis chamber (Neuroprobe, Cabin John, Md.) as previously described (Hu et al. (2001) J Leukoc Biol 70 15512). Briefly, different concentrations of stimulants were placed in the wells of the lower compartment of the chamber, and 50 μl cells (1.5×10^6 cells/ml for monocyte and neutrophil, 1×10^6 ETFR cells/ml) were added to the wells of the upper compartment. The lower and upper compartments were separated by either a 5-μm (for monocyte) or a 10-μm pore size, collagen-coated (for ETFR cells) polycarbonate filter (Osmonics, Livermore, Calif.). After incubation at 37° C. in humidified air with 5% CO2 (60 min for neutrophils, 90 min for monocytes, 4.5 h for ETFR cells), the filter was removed and stained, and the cells migrating across the filter were counted with light microscopy. The results are presented as the mean number of cells (±SD) in three high power fields (HPFs). […] After thorough washing with cold medium (RPMI 1640, 1% BSA), the cells were resuspended and assayed. To measure the effect of various signaling inhibitors, unless otherwise indicated, the cells were pre-incubated at 37° C. for 60 min with the inhibitors, and were then added to the upper wells of the chemotaxis chamber.

The subject of another assay is neutrophils. As to the kind of experiment: Chemotaxis assay, neutrophils. It counts as cell-based, human. The conditions noted are these: human neutrophils. On the procedure:
(§2) Human PBMC were isolated from leukopacks obtained through the courtesy of Transfusion Medicine Department, National Institutes of Health Clinical Center (Bethesda, Md.) by Ficoll-Hypaque density gradient centrifugation. Monocytes were purified from human PBMC by Percoll gradient to yield>90% pure preparations. […] H. Ali and R. Snyderman, Duke University (Durham, N.C.) and maintained in the presence of 0.8 mg/ml geneticin (G418, Life Technologies, Rockville, Md.) in DMEM supplemented with 10% FCS. B. Chemotaxis assay Migration of phagocytes and ETFR cells was assessed using a 48-well microchemotaxis chamber (Neuroprobe, Cabin John, Md.) as previously described (Hu et al. (2001) J Leukoc Biol 70 15512). Briefly, different concentrations of stimulants were placed in the wells of the lower compartment of the chamber, and 50 μl cells (1.5×10^6 cells/ml for monocyte and neutrophil, 1×10^6 ETFR cells/ml) were added to the wells of the upper compartment. The lower and upper compartments were separated by either a 5-μm (for monocyte) or a 10-μm pore size, collagen-coated (for ETFR cells) polycarbonate filter (Osmonics, Livermore, Calif.). After incubation at 37° C. in humidified air with 5% CO2 (60 min for neutrophils, 90 min for monocytes, 4.5 h for ETFR cells), the filter was removed and stained, and the cells migrating across the filter were counted with light microscopy. The results are presented as the mean number of cells (±SD) in three high power fields (HPFs). For analysis of cross-desensitization, cells were pretreated with indicated reagents for 1 h at 37° C. After thorough washing with cold medium (RPMI 1640, 1% BSA), the cells were resuspended and assayed. To measure the effect of various signaling inhibitors, unless otherwise indicated, the cells were pre-incubated at 37° C. for 60 min with the inhibitors, and were then added to the upper wells of the chemotaxis chamber.

The target of assay [1] is T1, FPR (Homo sapiens, UniProt P21462).
T1 construct: expressed in transfected cells; host or cells: Rat basophilic leukemia (RBL) cells, stably transfected (ETFR cells); gift of H. Ali and R. Snyderman, Duke University
T1 sequence (P21462 1-350): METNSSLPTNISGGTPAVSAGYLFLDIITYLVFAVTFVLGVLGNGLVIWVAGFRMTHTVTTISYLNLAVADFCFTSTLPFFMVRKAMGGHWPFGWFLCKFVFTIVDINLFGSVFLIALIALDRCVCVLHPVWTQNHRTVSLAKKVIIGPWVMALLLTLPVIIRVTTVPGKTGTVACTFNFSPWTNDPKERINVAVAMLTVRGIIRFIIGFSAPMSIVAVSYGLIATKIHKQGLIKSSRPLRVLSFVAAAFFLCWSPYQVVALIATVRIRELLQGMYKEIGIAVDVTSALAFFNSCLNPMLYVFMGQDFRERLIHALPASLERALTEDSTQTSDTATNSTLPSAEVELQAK
As to the kind of experiment: Chemotaxis assay, RBL cells transfected with FPR (ETFR cells). The note with it: for inhibition of ETFR cell chemotaxis to CaG: CaG 10 μg/ml; for inhibition of ETFR cell chemotaxis to fMLF: fMLF 100 nM. It counts as cell-based. On the procedure:
as §2

For assay [2], the target named is T1, FPR. As to the kind of experiment: Chemotactic activity for ETFR cells after α1-ACT treatment of stimulants and supernatants. The format is cell-based. The note with it: α1-ACT 0.75 μM. On the procedure:
ETFR and RBL cells (10×10^6/ml) were incubated with medium or 10 μg/ml CaG at 37° C. for 1 h. Supernatants were collected and measured for chemotactic activity for un-treated ETFR cells.
as §2
Cleavage by proteases is required for regulation of the function of a number of molecules in triggering proper physiological processes. […] Therefore, we examined whether interaction of FPR with CaG might cleave FPR to generate a new defacto agonist for this receptor, such as in the model of thrombin activation of its receptors. ETFR cells were cultured with CaG under the conditions that are sufficient for cleavage of other proteins by CaG (Kinlough-Rathbone et al. (1999) Thromb Res 95, 31524). The supernatant was collected and examined for its chemotactic activity for FPR. […]

“Also recorded” adds a separate entry of the source.

From patent US20060008891A1, “Cathepsin G-related peptides as modulators of formylpeptide receptors (FPR)” (The Government of USA as repersented by the Secretary, …, priority 2004, published 2006) come the findings set out here.

Regarding `CCCCCCCCCCCCCC(=O)O[C@@H]1[C@@H](C)[C@@]2(O)[C@@H](C=C(CO)C[C@]3(O)C(=O)C(C)=C[C@@H]23)[C@@H]2C(C)(C)[C@]12OC(C)=O` [PMA], the “translocation of PKCδ” value with PKCδ is “induced translocation of PKCζ, PKCα/β, and PKCδ in ETFR and RBL cells”. Besides, the “PKC translocation in parental RBL cells” value in the assay on PKC isozymes was “activated these PKC isozymes in both ETFR and RBL cells; also recorded: induced translocation of PKCζ, PKCα/β, and PKCδ in ETFR and RBL cells”. Further, in the assay with PKCζ, the “translocation of PKCζ” value is “activated these PKC isozymes in both ETFR and RBL cells; also recorded: induced translocation of PKCζ, PKCα/β, and PKCδ in ETFR and RBL cells”. Besides, the “translocation of PKCα/β” value in the assay with PKCα/β is “activated these PKC isozymes in both ETFR and RBL cells; also recorded: induced translocation of PKCζ, PKCα/β, and PKCδ in ETFR and RBL cells”.

For the molecule `C/C=C/C[C@@H](C)[C@@H](O)[C@H]1C(=O)N[C@@H](CC)C(=O)N(C)CC(=O)N(C)[C@@H](CC(C)C)C(=O)N[C@@H](C(C)C)C(=O)N(C)[C@@H](CC(C)C)C(=O)N[C@@H](C)C(=O)N[C@H](C)C(=O)N(C)[C@@H](CC(C)C)C(=O)N(C)[C@@H](CC(C)C)C(=O)N(C)[C@H](C(C)C)C(=O)N1C` [CsH, Cyclosporin H, reference compound], in the assay with monocytes (CaG 10 μg/ml), the “inhibition of monocyte chemotaxis to CaG” value was “abolished monocyte chemotaxis to CaG and fMLF”. The “inhibition of monocyte chemotaxis to fMLF” value in the assay on monocytes (fMLF 10 nM) is “abolished monocyte chemotaxis to CaG and fMLF”.

Turning to `CN(C)CCCn1cc(C2=C(c3c[nH]c4ccccc34)C(=O)NC2=O)c2ccccc21` [Gö 6850, bisindolylmaleimide I], in the assay with neutrophils, the “inhibition of neutrophil chemotaxis to CaG” value is “did not have any effect”, the “inhibition of neutrophil chemotaxis to IL-8” value is “did not have any effect” and the “inhibition of neutrophil chemotaxis to fMLF” value is on record as “did not have any effect”. At FPR [1], the “inhibition of ETFR cell chemotaxis to CaG” value is “limited effect on fMLF- and CaG-induced ETFR cell migration”; the “inhibition of ETFR cell chemotaxis to fMLF” value was “limited effect on fMLF- and CaG-induced ETFR cell migration”.

As for `CN[C@@H]1C[C@H]2O[C@@](C)([C@@H]1OC)n1c3ccccc3c3c4c(c5c6ccccc6n2c5c31)C(=O)NC4` [Staurosporine, reference compound], at FPR [1], the “inhibition of ETFR cell chemotaxis to CaG” value is “abrogated chemotaxis of ETFR cells induced by either CaG or fMLF” and the “inhibition of ETFR cell chemotaxis to fMLF” value is recorded as “abrogated chemotaxis of ETFR cells induced by either CaG or fMLF”.

B1: α1-ACT: α1-antichymotrypsin, CaG inhibitor (protein, UniProt P01011 24-423, looked up)
Alpha-1-antichymotrypsin: HPNSPLDEENLTQENQDRGTHVDLGLASANVDFAFSLYKQLVLKAPDKNVIFSPLSISTALAFLSLGAHNTTLTEILKGLKFNLTETSEAEIHQSFQHLLRTLNQSSDELQLSMGNAMFVKEQLSLLDRFTEDAKRLYGSEAFATDFQDSAAAKKLINDYVKNGTRGKITDLIKDLDSQTMMVLVNYIFFKAKWEMPFDPQDTHQSRFYLSKKKWVMVPMMSLHHLTIPYFRDEELSCTVVELKYTGNASALFILPDQDKMEEVEAMLLPETLKRWRDSLEFREIGELYLPKFSISRDYNLNDILLQLGIEEAFTSKADLSGITGARNLAVSQVVHKAVLDVFEEGTEASAATAVKITLLSALVETRTIVRFNRPFLMIIVPTDTQNIFFMSKVTNPKQA
B1: in the assay with FPR [2] (15 min room temperature), the “effect on chemotactic activity of supernatant from CaG-digested ETFR cells” value was “completely abolished” and the “effect on chemotactic activity of supernatants from CaG-treated RBL cells” value is listed as “inhibited by α1-ACT”. In addition, the “effect on chemotactic activity of CaG” value in the assay with FPR [2] (CaG 10 μg/ml) is “significantly reduced chemotactic activity”. In addition, the “effect on chemotactic activity of fMLF” value with FPR [2] (fMLF 100 nM) is given as “did not affect the chemotactic activity of fMLF for FPR”.
